According to US20240327382A1 (ALMAC DISCOVERY LIMITED, priority 2021, published 2024):
Counter-ions that a name gives are not always drawn.

Each compound was assayed against T1, Full-length USP19 (Homo sapiens, UniProt O94966) (assay: USP19 fluorescence polarisation (FP) assay, Ubiquitin-Lys-TAMRA substrate). Conditions: average of at least two duplicate experiments.
T1 construct: Full-length USP19 was purchased from Boston Biochem (E-576); purchased Boston Biochem E-576
T1 sequence (O94966 1-1318): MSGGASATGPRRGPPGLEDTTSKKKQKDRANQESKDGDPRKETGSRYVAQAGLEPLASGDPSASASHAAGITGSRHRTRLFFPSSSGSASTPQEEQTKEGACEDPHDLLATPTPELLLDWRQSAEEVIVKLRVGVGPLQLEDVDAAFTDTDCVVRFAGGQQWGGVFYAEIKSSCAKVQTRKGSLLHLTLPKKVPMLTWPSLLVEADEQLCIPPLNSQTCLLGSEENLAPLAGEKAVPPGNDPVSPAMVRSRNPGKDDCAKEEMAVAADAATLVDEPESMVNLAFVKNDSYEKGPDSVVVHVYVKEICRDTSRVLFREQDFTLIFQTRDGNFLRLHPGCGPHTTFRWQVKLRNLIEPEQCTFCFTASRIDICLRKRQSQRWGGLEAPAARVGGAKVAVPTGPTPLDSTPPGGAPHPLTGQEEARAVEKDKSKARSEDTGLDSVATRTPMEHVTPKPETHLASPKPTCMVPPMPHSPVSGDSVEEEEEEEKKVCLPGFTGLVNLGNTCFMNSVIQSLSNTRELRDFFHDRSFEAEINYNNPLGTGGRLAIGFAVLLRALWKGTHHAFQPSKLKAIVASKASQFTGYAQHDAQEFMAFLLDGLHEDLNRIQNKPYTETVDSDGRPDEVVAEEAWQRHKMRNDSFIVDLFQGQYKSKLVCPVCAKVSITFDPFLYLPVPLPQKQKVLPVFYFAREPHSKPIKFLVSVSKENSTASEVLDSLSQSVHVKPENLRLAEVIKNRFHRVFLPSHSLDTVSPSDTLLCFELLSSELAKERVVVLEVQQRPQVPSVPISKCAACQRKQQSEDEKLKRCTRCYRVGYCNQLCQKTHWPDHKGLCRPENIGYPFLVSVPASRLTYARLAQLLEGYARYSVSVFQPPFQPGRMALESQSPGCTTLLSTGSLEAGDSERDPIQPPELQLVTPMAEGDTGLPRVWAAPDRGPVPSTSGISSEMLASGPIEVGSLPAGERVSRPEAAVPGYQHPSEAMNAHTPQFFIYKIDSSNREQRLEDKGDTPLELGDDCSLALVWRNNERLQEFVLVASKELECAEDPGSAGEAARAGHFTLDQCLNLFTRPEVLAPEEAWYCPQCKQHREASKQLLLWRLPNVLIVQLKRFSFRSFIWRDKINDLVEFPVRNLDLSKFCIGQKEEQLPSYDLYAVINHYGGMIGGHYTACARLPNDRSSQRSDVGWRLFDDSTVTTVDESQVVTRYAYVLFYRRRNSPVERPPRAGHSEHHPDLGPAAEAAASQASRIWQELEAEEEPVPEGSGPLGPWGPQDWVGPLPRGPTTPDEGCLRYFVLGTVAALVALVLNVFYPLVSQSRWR
Format: biochemical
Outline: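 Fluorescence polarisation (excitation 530 nm, parallel and perpendicular emission at 575 nm) was recorded every 15 min for 90 min after adding the ubiquitin-Lys-TAMRA isopeptide (500 nM as dispensed). Beforehand, the full-length enzyme (2.5 nM as dispensed) sat 30 min at RT with compound diluted from 200 μM to 2 μM in HEPES pH 7.4 buffer with 150 mM NaCl, 5 mM DTT, 0.05% BSA and 0.05% CHAPS. Values normalised to uninhibited wells gave IC50s by non-linear fitting, each the mean of two or more duplicate runs.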

`O=C(N1CC[C@@H](Cn2cnc(-c3ccccc3)cc2=O)C2(CCCC2)C1)N1CC[C@@H](NCc2ncccn2)C[C@H]1c1cc(F)ccc1F` [Example 169, 3-(((R)-7-((2S,4R)-2-(2,5-Difluorophenyl)-4-((pyrimidin-2-ylmethyl)amino)piperidine-1-carbonyl)-7-azaspiro[4.5]decan-10-yl)methyl)-6-phenylpyrimidin-4(3H)-one] and `O=C(N1CC[C@@H](Cn2cnc(-c3ccccc3)cc2=O)C2(CCCC2)C1)N1CC[C@@H](NCc2ccncn2)C[C@H]1c1cc(F)ccc1F` [Example 170, 3-(((R)-7-((2S,4R)-2-(2,5-Difluorophenyl)-4-((pyrimidin-4-ylmethyl)amino)piperidine-1-carbonyl)-7-azaspiro[4.5]decan-10-yl)methyl)-6-phenylpyrimidin-4(3H)-one] cannot be ordered by IC50: < 10 nM for the first, < 10 nM for the second.

First: O=C(N1CC[C@@H](Cn2cnc3ccc(F)cc3c2=O)C2(CCCC2)C1)N1CC[C@@H](N2CCOCC2)C[C@H]1c1ccccc1 [Example 171, 6-Fluoro-3-(((R)-7-((2S,4R)-4-morpholino-2-phenylpiperidine-1-carbonyl)-7-azaspiro[4.5]decan-10-yl)methyl)quinazolin-4(3H)-one hydrochloride]
Second: N[C@@H]1CCN(C(=O)N2CC[C@@H](Cn3cnc4ccc(F)cc4c3=O)C3(CCCC3)C2)[C@H](c2cc(F)cc(F)c2)C1 [Example 181, 3-(((R)-7-((2S,4R)-4-Amino-2-(3,5-difluorophenyl)piperidine-1-carbonyl)-7-azaspiro[4.5]decan-10-yl)methyl)-6-fluoroquinazolin-4(3H)-one hydrochloride]
The IC50 of the first is higher: 100 to 1000 nM for the first, < 10 nM for the second.

First: CC(=O)N[C@@H]1CCN(C(=O)N2CC[C@@H](Cn3cnc4ccc(F)cc4c3=O)C3(CCCC3)C2)[C@H](c2cc(F)ccc2F)C1 [Example 172, N-((2S,4R)-2-(2,5-Difluorophenyl)-1-((R)-10-((6-fluoro-4-oxoquinazolin-3(4H)-yl)methyl)-7-azaspiro[4.5]decane-7-carbonyl)piperidin-4-yl)acetamide]
Second: O=C(N[C@@H]1CCN(C(=O)N2CC[C@@H](Cn3cnc4ccc(F)cc4c3=O)C3(CCCC3)C2)[C@H](c2cc(F)ccc2F)C1)C1CC1 [Example 173, N-((2S,4R)-2-(2,5-Difluorophenyl)-1-((R)-10-((6-fluoro-4-oxoquinazolin-3(4H)-yl)methyl)-7-azaspiro[4.5]decane-7-carbonyl)piperidin-4-yl)cyclopropanecarboxamide]
The IC50 of the first is lower: < 10 nM for the first, 10 to 100 nM for the second.

Compared with `CN(C)[C@@H]1CCN(C(=O)N2CC[C@@H](Cn3cnc4ccc(F)cc4c3=O)C3(CCCC3)C2)[C@H](c2cc(F)ccc2F)C1` [Example 174, 3-(((R)-7-((2S,4R)-2-(2,5-Difluorophenyl)-4-(dimethylamino)piperidine-1-carbonyl)-7-azaspiro[4.5]decan-10-yl)methyl)-6-fluoroquinazolin-4(3H)-one], `CN(C)[C@@H]1CCN(C(=O)N2CC[C@@H](Cn3cnc4ccc(F)cc4c3=O)C3(CCCC3)C2)[C@H](c2cc(F)cc(F)c2)C1` [Example 184, 3-(((R)-7-((2S,4R)-2-(3,5-Difluorophenyl)-4-(dimethylamino)piperidine-1-carbonyl)-7-azaspiro[4.5]decan-10-yl)methyl)-6-fluoroquinazolin-4(3H)-one hydrochloride] is higher in IC50: < 10 nM for the first, 100 to 1000 nM for the second. The first is the more potent here.

`O=C(O)[C@@H]1CCN(C(=O)N2CC[C@@H](Cn3cnc(-c4ccccc4)cc3=O)C3(CCCC3)C2)[C@H](c2ccccc2)C1` [Example 175, (2S,4R)-1-((R)-10-((6-oxo-4-phenylpyrimidin-1(6H)-yl)methyl)-7-azaspiro[4.5]decane-7-carbonyl)-2-phenylpiperidine-4-carboxylic acid] and `CNC(=O)[C@@H]1CCN(C(=O)N2CC[C@@H](Cn3cnc(-c4ccccc4)cc3=O)C3(CCCC3)C2)[C@H](c2ccccc2)C1` [Example 176, (2S,4R)-N-Methyl-1-((R)-10-((6-oxo-4-phenylpyrimidin-1(6H)-yl)methyl)-7-azaspiro[4.5]decane-7-carbonyl)-2-phenylpiperidine-4-carboxamide] fall in the same range of IC50: 100 to 1000 nM for the first, 100 to 1000 nM for the second.

Compared with `CN(C)C(=O)[C@@H]1CCN(C(=O)N2CC[C@@H](Cn3cnc(-c4ccccc4)cc3=O)C3(CCCC3)C2)[C@H](c2ccccc2)C1` [Example 177, (2S,4R)-N,N-Dimethyl-1-((R)-10-((6-oxo-4-phenylpyrimidin-1(6H)-yl)methyl)-7-azaspiro[4.5]decane-7-carbonyl)-2-phenylpiperidine-4-carboxamide], `CCN[C@@H]1CCN(C(=O)N2CC[C@@H](Cn3ccc(-c4ccccc4)cc3=O)C3(CCCC3)C2)[C@H](c2cc(F)ccc2F)C1` [Example 180, 1-(((R)-7-((2S,4R)-2-(2,5-Difluorophenyl)-4-(ethylamino)piperidine-1-carbonyl)-7-azaspiro[4.5]decan-10-yl)methyl)-4-phenylpyridin-2(1H)-one] is lower in IC50: 1000 to 20000 nM for the first, < 10 nM for the second. The second is the more potent here.

Compared with `CN[C@@H]1CCN(C(=O)N2CC[C@@H](CN3CC(c4ccccc4)=CC3=O)C3(CCCC3)C2)[C@H](c2cc(F)ccc2F)C1` [Example 178, 1-(((R)-7-((2S,4R)-2-(2,5-Difluorophenyl)-4-(methylamino)piperidine-1-carbonyl)-7-azaspiro[4.5]decan-10-yl)methyl)-4-phenyl-1,5-dihydro-2H-pyrrol-2-one], `CCN[C@@H]1CCN(C(=O)N2CC[C@@H](Cn3ccc(Cl)cc3=O)C3(CCCC3)C2)[C@H](c2cc(F)ccc2F)C1` [Example 179, 4-Chloro-1-(((R)-7-((2S,4R)-2-(2,5-difluorophenyl)-4-(ethylamino)piperidine-1-carbonyl)-7-azaspiro[4.5]decan-10-yl)methyl)pyridin-2(1H)-one] is lower in IC50: 10 to 100 nM for the first, < 10 nM for the second. The second is the more potent here.

`O=C(N1CC[C@@H](Cn2cnc(C3CC3)cc2=O)C2(CCCC2)C1)N1CC[C@@H](NCC(F)F)C[C@H]1c1cc(F)ccc1F` [Example 182, 6-Cyclopropyl-3-(((R)-7-((2S,4R)-4-((2,2-difluoroethyl)amino)-2-(2,5-difluorophenyl)piperidine-1-carbonyl)-7-azaspiro[4.5]decan-10-yl)methyl)pyrimidin-4(3H)-one] and `O=C(N1CC[C@@H](Cn2ccc(Cl)cc2=O)C2(CCCC2)C1)N1CC[C@@H](NCC(F)F)C[C@H]1c1cc(F)ccc1F` [Example 185, 4-Chloro-1-(((R)-7-((2S,4R)-4-((2,2-difluoroethyl)amino)-2-(2,5-difluorophenyl)piperidine-1-carbonyl)-7-azaspiro[4.5]decan-10-yl)methyl)pyridin-2(1H)-one] fall in the same range of IC50: 10 to 100 nM for the first, 10 to 100 nM for the second.

`O=C(N1CC[C@@H](Cn2cnc(C(F)F)cc2=O)C2(CCCC2)C1)N1CC[C@@H](NC2CC(F)(F)C2)C[C@H]1c1cc(F)ccc1F` [Example 183, 3-(((R)-7-((2S,4R)-4-((3,3-Difluorocyclobutyl)amino)-2-(2,5-difluorophenyl)piperidine-1-carbonyl)-7-azaspiro[4.5]decan-10-yl)methyl)-6-(difluoromethyl)pyrimidin-4(3H)-one] and `O=C(N1CC[C@@H](Cn2ccc(Cl)cc2=O)C2(CCCC2)C1)N1CC[C@@H](NC2CC(F)(F)C2)C[C@H]1c1cc(F)ccc1F` [Example 186, 4-Chloro-1-(((R)-7-((2S,4R)-4-((3,3-difluorocyclobutyl)amino)-2-(2,5-difluorophenyl)piperidine-1-carbonyl)-7-azaspiro[4.5]decan-10-yl)methyl)pyridin-2(1H)-one] fall in the same range of IC50: 10 to 100 nM for the first, 10 to 100 nM for the second.

`COc1ccccc1-c1cc(=O)n(C[C@]2(OC)CCN(C(=O)N3CCNC[C@H]3c3cc(F)ccc3F)CC23CCCC3)cn1` [Example 187, 3-(((S)-7-((R)-2-(2,5-Difluorophenyl)piperazine-1-carbonyl)-10-methoxy-7-azaspiro[4.5]decan-10-yl)methyl)-6-(2-methoxyphenyl)pyrimidin-4(3H)-one] was tested, and the IC50 was < 10 nM.
